What all share (assay type): in vivo
For one experiment, the system named is Chilo suppressalis. Briefly: Example B1: activity against Chilo suppressalis (striped rice stemborer), artificial diet. Particulars: 144 h, 200 ppm, L2 larvae, 6 days after infestation, read-out: control (at least one of mortality, anti-feedant effect, growth inhibition). An outline of the steps:
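Scoring covers mortality, anti-feedant effect and growth inhibition at 6 days post-infestation, relative to untreated diet, with activity defined as at least one category above untreated. Test solutions were aqueous, made from 10'000 ppm DMSO stocks, and applied to artificial diet before drying and infestation with L2 larvae.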

Another experiment concerns Diabrotica balteata. Briefly: Example B2: activity against Diabrotica balteata (corn root worm), maize sprouts. The note with it: 96 h, L2 larvae, 4 days after infestation, read-out: effect in at least one of the two categories (mortality or growth inhibition). An outline of the steps: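 Maize sprouts on agar were sprayed with aqueous test solutions made from 10′000 ppm DMSO stocks, dried, then infested with 6–10 L2 larvae per well. Mortality and growth inhibition were scored against untreated samples 4 days after infestation, at an application rate of 200 ppm.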

Experiment [1] has as its system Myzus persicae. Briefly: Example B4: activity against Myzus persicae (green peach aphid), intrinsic activity. Particulars: 120 h, test rate 12 ppm, 5 days after infestation. In outline:
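Compounds from 10′000 ppm DMSO stocks were mixed into sucrose solution in 24-well plates sealed with Parafilm. Aphid-infested pea seedlings were set on the membrane and the plate inverted so aphids fed through it. Mortality scored 5 days after infestation.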

Experiment [2] relates to Plutella xylostella. Briefly: Example B5: activity against Plutella xylostella (diamond back moth), artificial diet, eggs. Particulars: 192 h, 8 days after infestation, read-out: effect in at least one of the two categories (mortality or growth inhibition). An outline of the steps: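 Artificial diet in 24-well plates was treated with aqueous dilutions of DMSO stocks, dried, then infested with Plutella eggs. Mortality and growth inhibition were scored against untreated samples 8 days after infestation; application rate 200 ppm.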

Another experiment relates to Spodoptera littoralis. Description: Example B6: activity against Spodoptera littoralis (Egyptian cotton leaf worm), cotton leaf discs. The note with it: foliar, 72 h, 200 ppm, L1 larvae, 3 days after infestation, read-out: control (at least one of mortality, anti-feedant effect, growth inhibition). In outline:
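Leaf discs on agar sprayed with aqueous dilutions of 10′000 ppm DMSO stocks, dried, then infested with five L1 larvae. Mortality, anti-feeding and growth inhibition scored versus untreated 3 days after infestation; control given when any category exceeds untreated.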

Experiment [3] deals with Myzus persicae. Description: Example B7b: Myzus persicae feeding/contact activity, eggplant leaf discs. The note with it: foliar, 144 h, mixed ages, 6 days after infestation. The protocol:
Eggplant leaf discs were placed onto agar in a 24-well microtiter plate and sprayed with aqueous test solutions prepared from 10′000 ppm DMSO stock solutions. After drying, the leaf discs were infested with an aphid population of mixed ages. The samples were assessed for mortality 6 days after infestation.

The test system of another experiment is Pseudoplusia includens. Description: Example B9: Pseudoplusia includens (soybean looper), larvicide, feeding/contact, soybean plants. The note with it: Chrysodeixis includens; for percent effect (mortality or growth inhibition) at 50 ppm: 120 h, L2 larvae, 5 days after infestation, read-out: effect in at least one of the two categories (mortality or growth inhibition). The protocol: Soybean plants were treated in a spray chamber, cut off and placed into petri dishes containing wet filter paper. 1d after application leaves were infested with 5 L2 larvae and covered with a fabric filter and plastic lids. 5 days after infestation the samples were assessed for mortality and growth inhibition. The following compounds gave an effect of at least 80% in at least one of the two categories (mortality or growth inhibition) at an application rate of 50 ppm: […]

The subject of a further experiment is Euschistus heros. Briefly: Example B3: activity against Euschistus heros (neotropical brown stink bug), soybean leaves. Particulars: for percent effect (mortality or growth inhibition) at 200 ppm: 120 h, N2 nymphs, 5 days after infestation, read-out: effect in at least one of the two categories (mortality or growth inhibition). The protocol:
Soybean leaves on agar in 24-well microtiter plates were sprayed with aqueous test solutions prepared from 10′000 ppm DMSO stock solutions. After drying the leaves were infested with N2 nymphs. The samples were assessed for mortality and growth inhibition in comparison to untreated samples 5 days after infestation. The following compounds gave an effect of at least 80% in at least one of the two categories (mortality or growth inhibition) at an application rate of 200 ppm: […]

Experiment [4] has as its system Plutella xylostella. Description: B14b: Plutella xylostella (diamond back moth), larvicide L3, feeding/contact, Chinese cabbage. The note with it: 3 ppm. The text has this:
Activity of compounds P5, P17 and P21 according to the preparatory examples and of a compound from WO 21/083936 against Spodoptera littoralis (Example B6 above), Chilo suppressalis (Example B1 above), Diabrotica balteata (Example B14a below), Plutella xylostella (Example B14b below) and Pseudoplusia includens (Example B9 above) is summarized in Table B14. B14a: Diabrotica balteata (Corn root worm). Larvicide, feeding/contact 3 Corn seedlings were placed on wetted filter paper in plastic cups, and 3 ml of diluted test solutions were pipetted onto them. The cups were infested with 10 L2 larvae and checked for mortality and growth regulation 5 days after treatment. B14b: Plutella xylostella (Diamond back moth). Larvicide L3, feeding/contact Chinese cabbage plants were sprayed with diluted test solutions in an application chamber. Cut off leaves were placed into petri dishes with wetted filter paper and infested 1 day after application with 10 L3 larvae. Samples were assessed 4 days after infestation for mortality and growth regulation.

Broadly, the mortality is the share of the test organisms that died. A higher mortality goes with a strong lethal effect.

Turning to `C[C@H](Nc1ncnc2c(C(F)(F)F)cc(Cl)cc12)c1ncnn1-c1cc(C(=O)N(C)C)ncn1` [Compound P30, 6-[5-[(1S)-1-[[6-chloro-8-(trifluoromethyl)quinazolin-4-yl]amino]ethyl]-1,2,4-triazol-1-yl]-N,N-dimethyl-pyrimidine-4-carboxamide], the percent control (mortality, anti-feedant effect or growth inhibition) at 200 ppm with Chilo suppressalis and in the experiment on Spodoptera littoralis was ≥ 80% each time. The percent effect (mortality or growth inhibition) at 200 ppm in the experiment on Diabrotica balteata and with Plutella xylostella [2] was ≥ 80% throughout. The mortality at 12 ppm in the experiment with Myzus persicae [1] is ≥ 80%. For the same molecule, the mortality at 200 ppm in the experiment with Myzus persicae [3] was ≥ 80%. In the experiment with Pseudoplusia includens, the percent effect (mortality or growth inhibition) at 50 ppm is ≥ 80%.
With `C[C@H](Nc1ncnc2c(S(=O)(=O)C(F)(F)F)cc(Cl)cc12)c1ncnn1-c1cc(C(N)=O)ncn1` [Compound P59, 6-[5-[(1S)-1-[[6-chloro-8-(trifluoromethylsulfonyl)quinazolin-4-yl]amino]ethyl]-1,2,4-triazol-1-yl]pyrimidine-4-carboxamide], the percent control (mortality, anti-feedant effect or growth inhibition) at 200 ppm in the experiment on Chilo suppressalis and in the experiment on Spodoptera littoralis was ≥ 80% in each case. In addition, the percent effect (mortality or growth inhibition) at 200 ppm in the experiment with Diabrotica balteata, in the experiment on Euschistus heros and in the experiment on Plutella xylostella [2] was ≥ 80% each time. Moreover, the mortality at 12 ppm in the experiment with Myzus persicae [1] is ≥ 80%. In the experiment with Myzus persicae [3], the mortality at 200 ppm was ≥ 80%.
`CCN(C)C(=O)c1cc(-n2ncnc2[C@H](C)Nc2ncnc3c(C(F)(F)F)cc(Cl)cc23)ncn1` [Compound P31, 6-[5-[(1S)-1-[[6-chloro-8-(trifluoromethyl)quinazolin-4-yl]amino]ethyl]-1,2,4-triazol-1-yl]-N-ethyl-N-methyl-pyrimidine-4-carboxamide]: the percent control (mortality, anti-feedant effect or growth inhibition) at 200 ppm in the experiment with Chilo suppressalis and with Spodoptera littoralis was ≥ 80% in each case. The percent effect (mortality or growth inhibition) at 200 ppm with Diabrotica balteata and with Plutella xylostella [2] was ≥ 80% in each case. Further, in the experiment with Myzus persicae [1], the mortality at 12 ppm was ≥ 80%. The mortality at 200 ppm with Myzus persicae [3] was ≥ 80%. Further, the percent effect (mortality or growth inhibition) at 50 ppm in the experiment on Pseudoplusia includens is ≥ 80%.
In the case of `CC(Nc1ncnc2c(Br)cc(Br)cc12)c1ncnn1-c1ncccn1` (stereo not shown) [WO 21/083936 P.29, reference compound], in the experiment on Euschistus heros, the mortality at 200 ppm is 0%. Further, the mortality at 3 ppm turned out to be 30% in the experiment on Pseudoplusia includens (Pseudoplusia includens, 3 ppm) and 60% in the experiment on Plutella xylostella [4].
On to `C[C@@H](c1ncnn1-c1cc(C(=O)NCC#N)ncn1)N(C)c1ncnc2c(C(F)(F)F)cc(Cl)cc12` [Compound P52, 6-[5-[(1S)-1-[[6-chloro-8-(trifluoromethyl)quinazolin-4-yl]-methyl-amino]ethyl]-1,2,4-triazol-1-yl]-N-(cyanomethyl)pyrimidine-4-carboxamide], for which the percent control (mortality, anti-feedant effect or growth inhibition) at 200 ppm in the experiment on Chilo suppressalis and in the experiment with Spodoptera littoralis was ≥ 80% in each case. Further, the percent effect (mortality or growth inhibition) at 200 ppm in the experiment with Diabrotica balteata, with Euschistus heros and with Plutella xylostella [2] was ≥ 80% in each case. The mortality at 12 ppm in the experiment on Myzus persicae [1] is ≥ 80%. Further, in the experiment with Myzus persicae [3], the mortality at 200 ppm is ≥ 80%. The percent effect (mortality or growth inhibition) at 50 ppm with Pseudoplusia includens was ≥ 80%.
Consider `C[C@H](Nc1ncnc2c(C(F)(F)F)cc(Cl)cc12)c1ncnn1-c1cc(C(=O)N(C)C2CC2)ncn1` [Compound P63, 6-[5-[(1S)-1-[[6-chloro-8-(trifluoromethyl)quinazolin-4-yl]amino]ethyl]-1,2,4-triazol-1-yl]-N-cyclopropyl-N-methyl-pyrimidine-4-carboxamide], for which the percent control (mortality, anti-feedant effect or growth inhibition) at 200 ppm in the experiment with Chilo suppressalis and with Spodoptera littoralis was ≥ 80% each time. The percent effect (mortality or growth inhibition) at 200 ppm in the experiment on Diabrotica balteata, in the experiment on Euschistus heros and in the experiment with Plutella xylostella [2] was ≥ 80% in each case. Also, the mortality at 12 ppm in the experiment with Myzus persicae [1] was ≥ 80%. Also, in the experiment with Myzus persicae [3], the mortality at 200 ppm was ≥ 80%.
`C[C@@H](c1ncnn1-c1cc(C(N)=O)ncn1)N(C)c1ncnc2c(S(=O)(=O)C(F)(F)F)cc(Cl)cc12` [Compound P67, 6-[5-[(1S)-1-[[6-chloro-8-(trifluoromethylsulfonyl)quinazolin-4-yl]-methyl-amino]ethyl]-1,2,4-triazol-1-yl]pyrimidine-4-carboxamide]: the percent control (mortality, anti-feedant effect or growth inhibition) at 200 ppm with Chilo suppressalis and with Spodoptera littoralis was ≥ 80% each time. The percent effect (mortality or growth inhibition) at 200 ppm in the experiment with Diabrotica balteata, with Euschistus heros and with Plutella xylostella [2] was ≥ 80% each time. Further, the mortality at 12 ppm with Myzus persicae [1] is ≥ 80%. Further, in the experiment with Myzus persicae [3], the mortality at 200 ppm is ≥ 80%.
In the case of `CCN(C)C(=O)c1cc(-n2ncnc2[C@H](C)N(C)c2ncnc3c(C(F)(F)F)cc(Cl)cc23)ncn1` [Compound P55, 6-[5-[(1S)-1-[[6-chloro-8-(trifluoromethyl)quinazolin-4-yl]-methyl-amino]ethyl]-1,2,4-triazol-1-yl]-N-ethyl-N-methyl-pyrimidine-4-carboxamide], the percent control (mortality, anti-feedant effect or growth inhibition) at 200 ppm in the experiment on Chilo suppressalis and with Spodoptera littoralis was ≥ 80% each time. The percent effect (mortality or growth inhibition) at 200 ppm in the experiment on Diabrotica balteata, with Euschistus heros and with Plutella xylostella [2] was ≥ 80% throughout. In addition, the mortality at 12 ppm in the experiment on Myzus persicae [1] was ≥ 80%. Moreover, the mortality at 200 ppm in the experiment on Myzus persicae [3] was ≥ 80%. Besides, in the experiment on Pseudoplusia includens, the percent effect (mortality or growth inhibition) at 50 ppm is ≥ 80%.
`C[C@H](Nc1ncnc2c(C(F)(F)F)cc(Cl)cc12)c1ncnn1-c1cc(C(=O)NCC#N)ncn1` [Compound P38, 6-[5-[(1S)-1-[[6-chloro-8-(trifluoromethyl)quinazolin-4-yl]amino]ethyl]-1,2,4-triazol-1-yl]-N-(cyanomethyl)pyrimidine-4-carboxamide]: the percent control (mortality, anti-feedant effect or growth inhibition) at 200 ppm with Chilo suppressalis and with Spodoptera littoralis was ≥ 80% each time. The percent effect (mortality or growth inhibition) at 200 ppm with Diabrotica balteata, with Euschistus heros and with Plutella xylostella [2] was ≥ 80% throughout. Further, the mortality at 12 ppm in the experiment with Myzus persicae [1] is ≥ 80%. Moreover, the mortality at 200 ppm with Myzus persicae [3] is ≥ 80%. In addition, the percent effect (mortality or growth inhibition) at 50 ppm with Pseudoplusia includens is ≥ 80%.
For `CNC(=O)c1cc(-n2ncnc2[C@H](C)N(C)c2ncnc3c(S(=O)(=O)C(F)(F)F)cc(Cl)cc23)ncn1` [Compound P61], the percent control (mortality, anti-feedant effect or growth inhibition) at 200 ppm in the experiment on Chilo suppressalis and in the experiment on Spodoptera littoralis was ≥ 80% each time. The percent effect (mortality or growth inhibition) at 200 ppm in the experiment on Diabrotica balteata, in the experiment on Euschistus heros and in the experiment on Plutella xylostella [2] was ≥ 80% in each case. Also, the mortality at 12 ppm in the experiment on Myzus persicae [1] was ≥ 80%. Besides, the mortality at 200 ppm in the experiment with Myzus persicae [3] is ≥ 80%. For the same molecule, the percent effect (mortality or growth inhibition) at 50 ppm in the experiment on Pseudoplusia includens is ≥ 80%.

The record behind these values is patent US20260132125A1, “PESTICIDALLY ACTIVE FUSED BICYCLIC HETEROAROMATIC COMPOUNDS” (priority 2022, published 2026).
